According to the supplement of paper PMC10307832:

Tests used:
Assay in all cases: relative viability (nuclei count vs DMSO), 5 days (fraction); higher = more cells survive
NVP-TAE684 + Foretinib = compound: COc1cc(N2CCC(N3CCN(C)CC3)CC2)ccc1Nc1ncc(Cl)c(Nc2ccccc2S(=O)(=O)C(C)C)n1 [NVP-TAE684] + COc1cc2c(Oc3ccc(NC(=O)C4(C(=O)Nc5ccc(F)cc5)CC4)cc3F)ccnc2cc1OCCCN1CCOCC1 [Foretinib] (partner 0.25 µM)
Method in brief: (§1)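 Dosing by pin tool came one day after lung cancer cell lines were seeded in 1536-well plates, using either one drug or a fixed anchor-drug dose plus five library-drug doses (not always all listed) in √10 steps. After 5 days, nuclei were counted on 4× images. Relative viability is treated-well nuclei count divided by vehicle-well nuclei count, and values are medians of duplicate plates.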

CUDC-101 + Crizotinib = compound: C#Cc1cccc(Nc2ncnc3cc(OC)c(OCCCCCCC(=O)NO)cc23)c1 [CUDC-101] + C[C@@H](Oc1cc(-c2cnn(C3CCNCC3)c2)cnc1N)c1c(Cl)ccc(F)c1Cl [Crizotinib] (partner 1 µM)
Method in brief: as §1

Vandetanib + Olaparib = compound: COc1cc2/c(=N/c3ccc(Br)cc3F)nc[nH]c2cc1OCC1CCN(C)CC1 [Vandetanib] + O=C(c1cc(Cc2n[nH]c(=O)c3ccccc23)ccc1F)N1CCN(C(=O)C2CC2)CC1 [Olaparib] (partner 8 µM)
Method in brief: as §1

CUDC-101 + Bortezomib = compound: C#Cc1cccc(Nc2ncnc3cc(OC)c(OCCCCCCC(=O)NO)cc23)c1 [CUDC-101] + CC(C)C[C@H](NC(=O)[C@H](Cc1ccccc1)NC(=O)c1cnccn1)B(O)O [Bortezomib] (partner 0.002 µM)
Method in brief: as §1

Row | Cell Line | relative viability (NVP-TAE684 + Foretinib; first compound 0.2 µM) | relative viability (NVP-TAE684 + Foretinib; first compound 0.6325 µM) | relative viability (NVP-TAE684 + Foretinib; first compound 2 µM) | relative viability (CUDC-101 + Crizotinib; first compound 0.01 µM) | relative viability (CUDC-101 + Crizotinib; first compound 0.03162 µM) | relative viability (CUDC-101 + Crizotinib; first compound 0.1 µM) | relative viability (CUDC-101 + Crizotinib; first compound 0.3162 µM) | relative viability (CUDC-101 + Crizotinib; first compound 1 µM) | relative viability (Vandetanib + Olaparib; first compound 0.02 µM) | relative viability (Vandetanib + Olaparib; first compound 0.06325 µM) | relative viability (Vandetanib + Olaparib; first compound 0.2 µM) | relative viability (Vandetanib + Olaparib; first compound 0.6325 µM) | relative viability (Vandetanib + Olaparib; first compound 2 µM) | relative viability (CUDC-101 + Bortezomib; first compound 0.01 µM) | relative viability (CUDC-101 + Bortezomib; first compound 0.03162 µM) | relative viability (CUDC-101 + Bortezomib; first compound 0.1 µM) | relative viability (CUDC-101 + Bortezomib; first compound 0.3162 µM) | relative viability (CUDC-101 + Bortezomib; first compound 1 µM)
1 | NCI-H460 | 1.2 | 1.02 | 0.817 | 1.04 | 0.982 | 0.719 | 1.06 | 0.787 | 0.37 | 0.399 | 0.336 | 0.45 | 0.462 | 1.13 | 1.04 | 1.09 | 1.11 | 1.18
2 | NCI-H520 | 0.712 | 0.979 | 0.51 | 0.743 | – | 0.756 | 0.636 | 0.316 | 0.299 | 0.343 | 0.379 | 0.35 | 0.324 | 0.761 | – | 0.253 | 0.252 | 0.116
3 | NCI-H596 | 0.932 | 0.734 | 0.649 | 0.675 | 1 | 1.01 | 0.979 | 0.536 | 0.616 | 0.62 | 0.726 | 0.655 | 0.705 | 1.13 | 1.13 | 1.18 | 0.98 | 1
4 | NCI-H647 | 1.09 | 1.21 | 1.16 | 1.27 | 1.03 | 1.09 | 0.909 | 0.533 | 0.626 | 0.633 | 0.547 | 0.502 | 0.454 | 1.08 | 0.948 | 0.871 | 0.724 | 0.119
5 | NCI-H650 | 0.983 | 1 | 0.753 | 0.835 | 0.783 | 0.771 | 0.532 | 0.454 | 0.359 | 0.361 | 0.392 | 0.409 | 0.445 | 0.834 | 0.917 | 0.87 | 0.459 | 0.643
